Reference: ChEMBL document CHEMBL4145553, “Design, synthesis, and biological evaluation of novel amide and hydrazide based thioether analogs targeting Histone deacteylase (HDAC) enzymes” (Eur J Med Chem, 2018)
Calls of active or inactive are those of the source. The calls are words filed in the database; no cut-off is given here.

Key:
[1] = system: NCI-H522; experiment: Growth inhibition of human NCI-H522 cells incubated for 48 hrs by sulforhodamine B assay; type: functional; conditions: NCI-H522, 48 h
[2] = system: U-251; experiment: Growth inhibition of human U251 cells assessed as cell growth at 10^-8 M incubated for 48 hrs by sulforhodamine B assay relative to control; type: functional; conditions: U-251, 48 h, read-out: Activity
[3] = system: SK-MEL-2; experiment: Growth inhibition of human SK-MEL-2 cells assessed as cell growth at 10^-5 M incubated for 48 hrs by sulforhodamine B assay relative to control; type: functional; conditions: SK-MEL-2, 48 h, read-out: Activity
[4] = system: CCRF-CEM; experiment: Growth inhibition of human CCRF-CEM cells assessed as cell growth at 10^-8 M incubated for 48 hrs by sulforhodamine B assay relative to control; type: functional; conditions: read-out: Activity
[5] = system: EKVX; experiment: Growth inhibition of human EKVX cells assessed as cell growth at 10^-6 M incubated for 48 hrs by sulforhodamine B assay relative to control; type: functional; conditions: read-out: Activity
[6] = system: MDA-MB-435; experiment: Growth inhibition of human MDA-MB-435 cells assessed as cell growth at 10^-7 M incubated for 48 hrs by sulforhodamine B assay relative to control; type: functional; conditions: MDA-MB-435, 48 h, read-out: Activity
[7] = system: MDA-MB-231; experiment: Growth inhibition of human MDA-MB-231 cells assessed as cell growth at 10^-8 M incubated for 48 hrs by sulforhodamine B assay relative to control; type: functional; conditions: MDA-MB-231, 48 h, read-out: Activity
[8] = system: Malme-3M; experiment: Growth inhibition of human MALME-3M cells assessed as cell growth at 10^-7 M incubated for 48 hrs by sulforhodamine B assay relative to control; type: functional; conditions: read-out: Activity
[9] = system: CAKI-1; experiment: Growth inhibition of human Caki1 cells assessed as cell growth at 10^-5 M incubated for 48 hrs by sulforhodamine B assay relative to control; type: functional; conditions: CAKI-1, 48 h, read-out: Activity
[10] = system: SNB-75; experiment: Growth inhibition of human SNB75 cells assessed as cell growth at 10^-6 M incubated for 48 hrs by sulforhodamine B assay relative to control; type: functional; conditions: SNB-75, 48 h, read-out: Activity
[11] = system: SR; experiment: Growth inhibition of human SR cells assessed as cell growth at 10^-5 M incubated for 48 hrs by sulforhodamine B assay relative to control; type: functional; conditions: read-out: Activity
[12] = system: HL-60; experiment: Downregulation of HDAC3 mRNA expression in human HL60 cells by qRT-PCR method; type: functional, cell-based
[13] = system: SK-MEL-28; experiment: Growth inhibition of human SK-MEL-28 cells assessed as cell growth at 10^-8 M incubated for 48 hrs by sulforhodamine B assay relative to control; type: functional; conditions: SK-MEL-28, 48 h, read-out: Activity
[14] = system: HT-29; experiment: Growth inhibition of human HT-29 cells incubated for 48 hrs by sulforhodamine B assay; type: functional; conditions: HT-29, 48 h
[15] = system: LOX IMVI; experiment: Growth inhibition of human LOXIMVI cells assessed as cell growth at 10^-5 M incubated for 48 hrs by sulforhodamine B assay relative to control; type: functional; conditions: read-out: Activity
[16] = system: HL-60; experiment: Induction of apoptosis in human HL60 cells assessed as increase in caspase-3 expression by qRT-PCR method; type: functional, cell-based
[17] = system: SK-MEL-5; experiment: Growth inhibition of human SK-MEL-5 cells assessed as cell growth at 10^-6 M incubated for 48 hrs by sulforhodamine B assay relative to control; type: functional; conditions: SK-MEL-5, 48 h, read-out: Activity
[18] = system: T47D; experiment: Growth inhibition of human T47D cells assessed as cell growth at 10^-4 M incubated for 48 hrs by sulforhodamine B assay relative to control; type: functional; conditions: read-out: Activity
[19] = system: MDA-MB-468; experiment: Growth inhibition of human MDA-MB-468 cells assessed as cell growth at 10^-4 M incubated for 48 hrs by sulforhodamine B assay relative to control; type: functional; conditions: MDA-MB-468, 48 h, read-out: Activity
[20] = system: ACHN; experiment: Growth inhibition of human ACHN cells assessed as cell growth at 10^-4 M incubated for 48 hrs by sulforhodamine B assay relative to control; type: functional; conditions: read-out: Activity
[21] = system: SF-539; experiment: Growth inhibition of human SF539 cells assessed as cell growth at 10^-5 M incubated for 48 hrs by sulforhodamine B assay relative to control; type: functional; conditions: SF-539, 48 h, read-out: Activity
[22] = system: M14; experiment: Growth inhibition of human M14 cells assessed as cell growth at 10^-7 M incubated for 48 hrs by sulforhodamine B assay relative to control; type: functional; conditions: M14, 48 h, read-out: Activity
[23] = system: SF-295; experiment: Growth inhibition of human SF295 cells assessed as cell growth at 10^-7 M incubated for 48 hrs by sulforhodamine B assay relative to control; type: functional; conditions: SF-295, 48 h, read-out: Activity
[24] = system: SK-MEL-28; experiment: Growth inhibition of human SK-MEL-28 cells assessed as cell growth at 10^-4 M incubated for 48 hrs by sulforhodamine B assay relative to control; type: functional; conditions: SK-MEL-28, 48 h, read-out: Activity
[25] = system: OVCAR-3; experiment: Growth inhibition of human OVCAR3 cells incubated for 48 hrs by sulforhodamine B assay; type: functional; conditions: OVCAR-3, 48 h
[26] = system: SK-MEL-5; experiment: Growth inhibition of human SK-MEL-5 cells assessed as cell growth at 10^-4 M incubated for 48 hrs by sulforhodamine B assay relative to control; type: functional; conditions: SK-MEL-5, 48 h, read-out: Activity
[27] = system: Hs-578T; experiment: Growth inhibition of human Hs 578T cells incubated for 48 hrs by sulforhodamine B assay; type: functional
[28] = system: SF-295; experiment: Growth inhibition of human SF295 cells assessed as cell growth at 10^-5 M incubated for 48 hrs by sulforhodamine B assay relative to control; type: functional; conditions: SF-295, 48 h, read-out: Activity
[29] = system: Hs-578T; experiment: Growth inhibition of human Hs 578T cells assessed as cell growth at 10^-6 M incubated for 48 hrs by sulforhodamine B assay relative to control; type: functional; conditions: read-out: Activity
[30] = system: HL-60; experiment: Cell cycle arrest in human HL60 cells assessed as accumulation at S-phase by propidium iodide staining based flow cytometry (reference value: 24.9%); type: functional
[31] = system: SF-539; experiment: Growth inhibition of human SF539 cells incubated for 48 hrs by sulforhodamine B assay; type: functional; conditions: SF-539, 48 h
[32] = system: SF-268; experiment: Growth inhibition of human SF268 cells assessed as cell growth at 10^-5 M incubated for 48 hrs by sulforhodamine B assay relative to control; type: functional; conditions: SF-268, 48 h, read-out: Activity
[33] = read-out: LC50 (the source's name)
[34] = read-out: pLC50 (the source's name) (converted)

CCS/C(Nc1ccccc1)=C(\C#N)C(=O)Nc1ccc(OC)cc1
GI50 ([1]; read-out: GI50): 2.21 µM | CC50 [1, 33]: > 100 µM | TGI ([1]; read-out: TGI): 9.68 µM | GI50 ([1]; read-out: pGI50 (converted)): 2.19 µM | CC50 [1, 34]: > 100 µM | TGI ([1]; read-out: pTGI (converted)): 9.77 µM | growth at 0.01 µM [2]: 97% | growth at 10 µM [3]: 11% | growth at 0.01 µM [4]: 91% | growth at 1 µM [5]: 84% | growth at 0.1 µM [6]: 91% | growth at 0.01 µM [7]: 104% | growth at 0.1 µM [8]: 92% | growth at 10 µM [9]: 29% | growth at 1 µM [10]: 81% | growth at 10 µM [11]: 21% | Activity [12]: Active | growth at 0.01 µM [13]: 101% | GI50 ([14]; read-out: GI50): 3.47 µM | CC50 [14, 33]: > 100 µM | TGI ([14]; read-out: TGI): 33.3 µM | GI50 ([14]; read-out: pGI50 (converted)): 3.47 µM | CC50 [14, 34]: > 100 µM | TGI ([14]; read-out: pTGI (converted)): 33.1 µM | growth at 10 µM [15]: 40% | Activity [16]: Active | growth at 1 µM [17]: 80% | growth at 100 µM [18]: 3% | growth at 100 µM [19]: -24% | growth at 100 µM [20]: 17% | growth at 10 µM [21]: -41% | growth at 0.1 µM [22]: 93% | growth at 0.1 µM [23]: 90% | growth at 100 µM [24]: 37% | GI50 ([25]; read-out: GI50): 2.61 µM | CC50 [25, 33]: > 100 µM | TGI ([25]; read-out: TGI): 8.59 µM | GI50 ([25]; read-out: pGI50 (converted)): 2.63 µM | CC50 [25, 34]: > 100 µM | TGI ([25]; read-out: pTGI (converted)): 8.51 µM | growth at 100 µM [26]: -58% | GI50 ([27]; read-out: GI50): 4.07 µM | CC50 [27, 33]: > 100 µM | TGI ([27]; read-out: TGI): > 100 µM | GI50 ([27]; read-out: pGI50 (converted)): 4.07 µM | CC50 [27, 34]: > 100 µM | TGI ([27]; read-out: pTGI (converted)): > 100 µM | growth at 10 µM [28]: 16% | growth at 1 µM [29]: 84% | Activity [30]: 15.51% | GI50 ([31]; read-out: GI50): 1.96 µM | CC50 [31, 33]: 52.9 µM | TGI ([31]; read-out: TGI): 4.81 µM | GI50 ([31]; read-out: pGI50 (converted)): 1.95 µM | CC50 [31, 34]: 52.5 µM | TGI ([31]; read-out: pTGI (converted)): 4.79 µM | growth at 10 µM [32]: 42%

CCS/C(Nc1ccccc1)=C(\C#N)C(=O)N/N=C\c1ccc(Cl)cc1Cl
GI50 ([1]; read-out: GI50): 1.84 µM | CC50 [1, 33]: > 100 µM | GI50 ([1]; read-out: pGI50 (converted)): 1.82 µM | CC50 [1, 34]: > 100 µM | growth at 0.01 µM [2]: 101% | growth at 10 µM [3]: 16% | growth at 0.01 µM [4]: 103% | growth at 1 µM [5]: 87% | growth at 0.1 µM [6]: 86% | growth at 0.01 µM [7]: 101% | growth at 0.1 µM [8]: 89% | growth at 10 µM [9]: 23% | growth at 1 µM [10]: 76% | growth at 10 µM [11]: 28% | Activity [12]: Active | growth at 0.01 µM [13]: 104% | GI50 ([14]; read-out: GI50): 3.7 µM | CC50 [14, 33]: > 100 µM | TGI ([14]; read-out: TGI): > 100 µM | GI50 ([14]; read-out: pGI50 (converted)): 3.72 µM | CC50 [14, 34]: > 100 µM | TGI ([14]; read-out: pTGI (converted)): > 100 µM | growth at 10 µM [15]: 39% | Activity [16]: Active | growth at 1 µM [17]: 81% | growth at 100 µM [18]: 17% | growth at 100 µM [19]: -7% | growth at 100 µM [20]: 29% | growth at 10 µM [21]: 3% | growth at 0.1 µM [22]: 93% | growth at 0.1 µM [23]: 88% | growth at 100 µM [24]: 45% | GI50 ([25]; read-out: GI50): 2.8 µM | CC50 [25, 33]: > 100 µM | TGI ([25]; read-out: TGI): 10.8 µM | GI50 ([25]; read-out: pGI50 (converted)): 2.82 µM | CC50 [25, 34]: > 100 µM | TGI ([25]; read-out: pTGI (converted)): 10.7 µM | growth at 100 µM [26]: -14% | GI50 ([27]; read-out: GI50): 2.74 µM | CC50 [27, 33]: > 100 µM | TGI ([27]; read-out: TGI): 98.7 µM | GI50 ([27]; read-out: pGI50 (converted)): 2.75 µM | CC50 [27, 34]: > 100 µM | TGI ([27]; read-out: pTGI (converted)): 97.7 µM | growth at 10 µM [28]: 15% | growth at 1 µM [29]: 75% | Activity [30]: 13.18% | GI50 ([31]; read-out: GI50): 2.89 µM | CC50 [31, 33]: > 100 µM | TGI ([31]; read-out: TGI): 20.6 µM | GI50 ([31]; read-out: pGI50 (converted)): 2.88 µM | CC50 [31, 34]: > 100 µM | TGI ([31]; read-out: pTGI (converted)): 20.4 µM | growth at 10 µM [32]: 42%
